Type in all cases: cell-based
Experiment [1] has as its system γ-secretase. The experiment is described as follows: Gamma secretase dependence of two sensors (H2B-mCherry reporter with inducer plus gamma secretase inhibitor). The conditions noted are these: dNS3-(EDVVCC) and BCL-xL-BH3(G22) sensors, inducer grazoprevir 3 μM or ABT-737 3 μM, DAPT 5 μM, Compound E 1 μM, 24 hours. The protocol: FIG. 4 Gamma secretase dependence of two distinct sensors. dNS3-(EDVVCC (SEQ ID NO: 57))-TMD-Gal4-VP64 and BCL-xL-BH3(G22)-TMD-Gal4-VP64 sensors were tested for gamma secretase dependence via the addition of gamma secretase inhibitors DAPT and Compound E (Cpd E). […] Upon addition of inducer and either gamma secretase inhibitor, H2B-mCherry signal is ablated. Images are taken 24 hours after transfection and drug addition. A fluorescent transfection marker is shown as a smaller corresponding image. Drug concentrations are as follows: NS3 inducer, grazoprevir 3 μM; BCL-xL inducer, ABT-737 3 μM; DAPT 5 μM; Compound E 1 μM. Scale bar 50 μm.
To probe into the mechanism of activation for the antiviral drug sensors and ABT-737 sensor, the inventors next inhibited γ-secretase with selective inhibitors, DAPT and compound E. Upon inhibition with either of these compounds, ICD driven activation of H2B-mCherry was inhibited (FIG. 4). Inhibition also occurred despite the presence of each associated sensor inducer, indicating γ-secretase plays a crucial role in MIMOsensor activation and is required for ICD release.

Experiment [2] addresses T1, catalytically inactive NS3 protease (NS3^S139A, dNS3) sensor (Hepatitis C virus genotype 1a, UniProt P27958, S1165A).
T1 construct: transmembrane domain with γ-secretase cleavage site (TMD) (internal); Gal4-VP64 intracellular domain (C); expressed in transfected cells
The conditions noted are these: drug grazoprevir; histograms of H2B-mCherry, flow cytometry, 48 hours post-drug addition. The protocol: FIGS. 2A-2B. (FIG. 2A) Schematic of antiviral drug sensor which is designed to sense Hepatitis C Virus NS3 inhibitors. (FIG. 2B) Two sensors with varying sensitivity to antiviral drug based on the affinity of their intramolecular peptide. Activity of the sensor is shown as histograms of intracellular domain driven H2B-mCherry expression in clonal cell lines, measured by flow cytometry, 48 hours post-drug addition. […] Red arrows are drawn to highlight differences in sensitivity to ligand. Drug is grazoprevir or delivery vehicle control, DMSO.
(§1) Upon addition of inducer and either gamma secretase inhibitor, H2B-mCherry signal is ablated. Images are taken 24 hours after transfection and drug addition. A fluorescent transfection marker is shown as a smaller corresponding image. […] Scale bar 50 μm.
For proof of concept, the ICD chosen was a synthetic transcription factor, Gal4-VP64, which activates UAS promoter driven H2B-mCherry gene expression. […] The substitution of the high affinity peptide for low affinity peptide appears to increase the sensitivity of the sensor, consistent with the theory of competitive displacement kinetics.

For experiment [3], the system named is BCL-xL-BH3(G22)-Gal4-VP64 sensor. Nature of the experiment: BCL-xL-BH3(G22)-Gal4-VP64 sensor: ICD driven H2B-mCherry reporter expression. As to the method: FIG. 3 Activity of BCL-xL-BH3(G22)-Gal4-VP64 upon presence of BCL-xL inhibitors. BCL-xL serves as a ligand binding domain and BH3(G22) serves as an intramolecular peptide. […] H2B mCherry expression is visualized via microscopy. A fluorescent transfection marker is also shown to verify the presence of cells as a smaller corresponding image. Images were taken 48 hours after transfection and drug addition. Scale bar 50 μm.
as §1
The inventors next applied this methodology to a completely different LBD and peptide pair, BCL-xL and the BH3(G22) peptide, while keeping the ICD the same.

“Also recorded” adds a separate entry of the source.

Experimental findings from patent US12043652B2, “Engineered extracellular receptor constructs and uses thereof” (TRUSTEES OF BOSTON UNIVERSITY, priority 2020, dated 2024) are described below.

T1 sequence (P27958 1027-1208 S1165A): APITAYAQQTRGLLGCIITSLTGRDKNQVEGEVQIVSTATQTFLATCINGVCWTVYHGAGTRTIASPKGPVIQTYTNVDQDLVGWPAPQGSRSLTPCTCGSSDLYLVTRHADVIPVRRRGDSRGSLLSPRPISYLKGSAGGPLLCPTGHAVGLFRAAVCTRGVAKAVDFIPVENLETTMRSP

As for `C[C@H](NC(=O)Cc1cc(F)cc(F)c1)C(=O)N[C@H](C(=O)OC(C)(C)C)c1ccccc1` [DAPT], the “ICD driven activation of H2B-mCherry in presence of sensor inducer” value in experiment [1] is “inhibited; also recorded: ablated”.
As for DEEMEEC, the “sensitivity of the sensor to antiviral drug, by intramolecular peptide” value in experiment [2] is recorded as “high sensitivity”.
As for `C[C@H](NC(=O)Cc1cc(F)cc(F)c1)C(=O)N[C@H]1N=C(c2ccccc2)c2ccccc2N(C)C1=O` [Compound E], the “ICD driven activation of H2B-mCherry in presence of sensor inducer” value is recorded as “ablated” in experiment [1] and “inhibited” in experiment [1] (listed as compound E).
As for `CN(C)CC[C@H](CSc1ccccc1)Nc1ccc(S(=O)(=O)NC(=O)c2ccc(N3CCN(Cc4ccccc4-c4ccc(Cl)cc4)CC3)cc2)cc1[N+](=O)[O-]` [ABT-737], in experiment [3] (BCL-xL-BH3(G22)-TMD-Gal4-VP64 sensor, ABT-737 3 μM, images 24 hours after transfection and drug addition), the “ICD driven H2B-mCherry expression” value is “activates ICD driven H2B-mCherry expression”. In addition, the “activation of H2B-mCherry (sensor response to drug)” value in experiment [3] (microscopy, 48 hours after transfection and drug addition) is “concentration dependent activation”.
For the molecule GELDELVYLLDGPGYDPIHS [CP5-46A-4D5E], the “sensitivity of the sensor to antiviral drug, by intramolecular peptide” value in experiment [2] was “intermediate sensitivity”.
